These results are taken from US20250326771A1, “PIPERAZINE DERIVATIVES USEFUL IN HIV THERAPY” (VIIV HEALTHCARE COMPANY, priority 2022, published 2025).

For one assay, the target named is cIAP1-BIR3 (Homo sapiens (Human), UniProt Q13490). Kind of assay: BIR binding assay (FRET competition), cIAP1 BIR3. Particulars: for cIAP1 BIR3 vs BIR2 separation window: fold separation (FS) for cIAP1. In a few lines:
(§1)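 615/665 nm FRET ratio. Compound, His-domain and 200 nM AF647-SMAC peptide incubated 60 min, then 2 nM Eu-W1024 for 30 min. Domains: cIAP1-BIR3 50 nM; XIAP-BIR3 100 nM; cIAP1-BIR2, cIAP2-BIR2 325 nM each. 15-pt 3-fold series; variable-slope IC50.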

The target of a further assay is cIAP2-BIR2 (Homo sapiens (Human), UniProt Q13489). Kind of assay: BIR binding assay (FRET competition), cIAP2 BIR2. In a few lines:
as §1

Another assay deals with cIAP1-BIR2 (Homo sapiens (Human), UniProt Q13490). Kind of assay: BIR binding assay (FRET competition), cIAP1 BIR2. Summed up:
as §1

In a further assay the target is cIAP2-BIR3 (Homo sapiens (Human), UniProt Q13489). The assay is described as follows: BIR binding assay (FRET competition), cIAP2 BIR3. Particulars: for cIAP2 BIR3 vs BIR2 separation window: fold separation (FS) for cIAP2.
Sequence of cIAP2-BIR3 (Q13489 238-349): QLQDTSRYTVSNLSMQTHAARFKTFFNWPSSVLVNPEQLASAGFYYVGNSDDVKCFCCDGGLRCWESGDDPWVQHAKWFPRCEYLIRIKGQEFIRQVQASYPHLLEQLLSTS
The subject of assay [1] is Jurkat HIV-luciferase clones. Kind of assay: Jurkat latency reversal assay. It counts as cell-based. Particulars: Homo sapiens, 48 h; Jurkat latency reversal assay potency; read-out: Jurkat pEC50 (converted). In a few lines: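 Pooled Jurkat clones C16, 115 and N6, each carrying one or two integrated HIV-luciferase proviruses and kept in 500 nM EFV, were exposed to 3-fold, 14-point compound titrations in duplicate (10 μM top, 0.5% DMSO) for 48 h at 37° C. Luciferase luminescence was fitted by four-parameter logistic regression for EC50 and maximal percent activation versus vehicle.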

The next assay addresses XIAP-BIR3 (Homo sapiens (Human), UniProt P98170). The assay is described as follows: BIR binding assay (FRET competition), XIAP BIR3. Particulars: for XIAP BIR3 vs BIR2 separation window: fold separation (FS) for XIAP. Summed up: as §1
In a further assay the target is XIAP-BIR2 (Homo sapiens (Human), UniProt P98170). Kind of assay: BIR binding assay (FRET competition), XIAP BIR2. Particulars: FRET competition; read-out: XIAP BIR2 (pIC50) (converted). Summed up:
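Competitive TR-FRET used His-tagged XIAP-BIR2 (200 nM) and 200 nM AlexaFluor647-labelled AVPIAQKSE SMAC peptide in HEPES buffer pH 7.4 with CHAPS, glycerol and DTT, incubated 60 min before 30 min with 2 nM Eu-W1024. The 615/665 nm ratio from a 15-point, 3-fold series was fit with a four-parameter model for IC50/pIC50.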

Sequence of XIAP-BIR2 (P98170 124-240): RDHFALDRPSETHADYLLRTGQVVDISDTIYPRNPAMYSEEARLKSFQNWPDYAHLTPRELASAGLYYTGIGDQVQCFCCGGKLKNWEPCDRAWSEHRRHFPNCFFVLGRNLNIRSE
Sequence of cIAP2-BIR2 (Q13489 158-242): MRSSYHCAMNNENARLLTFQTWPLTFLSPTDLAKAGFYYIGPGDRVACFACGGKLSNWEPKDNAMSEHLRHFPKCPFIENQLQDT
Sequence of XIAP-BIR3 (P98170 241-356): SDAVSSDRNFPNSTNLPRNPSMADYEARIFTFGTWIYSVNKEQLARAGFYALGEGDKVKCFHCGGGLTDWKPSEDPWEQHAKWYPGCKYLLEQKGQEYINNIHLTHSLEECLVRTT
Sequence of cIAP1-BIR2 (Q13490 173-257): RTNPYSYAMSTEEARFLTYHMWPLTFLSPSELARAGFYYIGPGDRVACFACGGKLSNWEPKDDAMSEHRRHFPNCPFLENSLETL
Sequence of cIAP1-BIR3 (Q13490 253-363): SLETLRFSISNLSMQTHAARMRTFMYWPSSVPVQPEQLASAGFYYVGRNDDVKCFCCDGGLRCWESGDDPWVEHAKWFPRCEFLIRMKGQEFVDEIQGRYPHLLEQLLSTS

For `C[C@@H]1CN(CC(=O)N2CC(C)(C)c3ncc(Nc4ccc(F)cc4)cc32)[C@@H](CN2CCO[C@H](COc3cccc(OC[C@@H]4CN(C[C@H]5CN[C@H](C)CN5CC(=O)N5CC(C)(C)c6ncc(Nc7ccc(F)cc7)cc65)CCO4)c3)C2)CN1` [Compound 143, -[6-(4-fluoroanilino)-3,3-dimethyl-2H-pyrrolo[3,2-b]pyridin-1-yl]-2-[(2R,5R)-2-[[(2S)-2-[[3-[[(2S)-4-[[(2R,5R)-1-[2-[6-(4-fluoroanilino)-3,3-dimethyl-2H-pyrrolo[3,2-b]pyridin-1-yl]-2-oxo-ethyl]-5-methyl-piperazin-2-yl]methyl]morpholin-2-yl]methoxy]phenoxy]methyl]morpholin-4-yl]methyl]-5-methyl-piperazin-1-yl]ethenone], the IC50 was 31.6 to 501 nM at cIAP1-BIR3; 10000 to 51300 nM at cIAP2-BIR2; 10000 to 51300 nM at cIAP1-BIR2; 15.8 to 31.6 nM at cIAP2-BIR3; 31.6 to 501 nM at XIAP-BIR3; 10000 to 51300 nM on XIAP-BIR2. On cIAP2-BIR3, the “cIAP2 BIR3 vs BIR2 separation window” value is “++++ (FS>10,000)”. In addition, the EC50 in assay [1] was 316 to 3310 nM. In addition, the “XIAP BIR3 vs BIR2 separation window” value on XIAP-BIR3 is given as “+++ (10,000>FS>1,000)”.
Consider `C[C@@H]1CN(CC(=O)N2CC(C)(C)c3[nH]c(=O)c(Cc4ccc(F)cc4)cc32)[C@@H](CN2CCO[C@H](C(=O)NCC(C)(C)CNC(=O)[C@@H]3CN(C[C@H]4CN[C@H](C)CN4CC(=O)N4CC(C)(C)c5[nH]c(=O)c(Cc6ccc(F)cc6)cc54)CCO3)C2)CN1` [Compound 139, (2S,2′S)-N,N′-(2,2-dimethylpropane-1,3-diyl)bis(4-(((2R,5R)-1-(2-(6-(4-fluorobenzyl)-3,3-dimethyl-5-oxo-2,3,4,5-tetrahydro-1H-pyrrolo[3,2-b]pyridin-1-yl)-2-oxoethyl)-5-methylpiperazin-2-yl)methyl)morpholine-2-carboxamide)], for which the IC50 on cIAP1-BIR3 is 7.94 to 15.8 nM; on cIAP2-BIR2 it was 1000 to 3160 nM; on cIAP1-BIR2, 1000 to 3160 nM; on cIAP2-BIR3 it was 7.94 to 15.8 nM; at XIAP-BIR3 it was 31.6 to 501 nM; on XIAP-BIR2, 10000 to 51300 nM. Also, at cIAP1-BIR3, the “cIAP1 BIR3 vs BIR2 separation window” value was “+++ (10,000>FS>1,000)”. Besides, at cIAP2-BIR3, the “cIAP2 BIR3 vs BIR2 separation window” value is “+++ (10,000>FS>1,000)”. Further, the EC50 in assay [1] is 63.1 to 316 nM. For the same compound, the “XIAP BIR3 vs BIR2 separation window” value at XIAP-BIR3 is on record as “+++ (10,000>FS>1,000)”.
Turning to `C[C@@H]1CN(CC(=O)N2CC(C)(C)c3[nH]c(=O)c(Cc4ccc(F)cc4)cc32)[C@@H](CN2CCN(Cc3cn(CCC(=O)N4CCN(C[C@H]5CN[C@H](C)CN5CC(=O)N5CC(C)(C)c6[nH]c(=O)c(Cc7ccc(F)cc7)cc65)[C@H](C)C4)nn3)C[C@H]2C)CN1` [Compound 156], the IC50 was 15.8 to 31.6 nM at cIAP1-BIR3; 1000 to 3160 nM on cIAP2-BIR2; 1000 to 3160 nM at cIAP1-BIR2; 7.94 to 15.8 nM at cIAP2-BIR3; 15.8 to 31.6 nM at XIAP-BIR3; 10000 to 51300 nM at XIAP-BIR2. In addition, the “cIAP1 BIR3 vs BIR2 separation window” value on cIAP1-BIR3 is “++ (1,000>FS>100)”. Moreover, the “cIAP2 BIR3 vs BIR2 separation window” value at cIAP2-BIR3 is reported as “+++ (10,000>FS>1,000)”. Further, the EC50 in assay [1] is 63.1 to 316 nM. On XIAP-BIR3, the “XIAP BIR3 vs BIR2 separation window” value is “++++ (FS>10,000)”.
